Measurements from BindingDB's records for doi:10.1021/jm990250u (Hoechst Marion Roussel, 1999).

biological target: Stromelysin-1 (Homo sapiens, UniProt P08254); experiment: Inhibitory concentration against human matrix metalloprotease-3 (MMP-3)
Sequence (P08254 whole entry): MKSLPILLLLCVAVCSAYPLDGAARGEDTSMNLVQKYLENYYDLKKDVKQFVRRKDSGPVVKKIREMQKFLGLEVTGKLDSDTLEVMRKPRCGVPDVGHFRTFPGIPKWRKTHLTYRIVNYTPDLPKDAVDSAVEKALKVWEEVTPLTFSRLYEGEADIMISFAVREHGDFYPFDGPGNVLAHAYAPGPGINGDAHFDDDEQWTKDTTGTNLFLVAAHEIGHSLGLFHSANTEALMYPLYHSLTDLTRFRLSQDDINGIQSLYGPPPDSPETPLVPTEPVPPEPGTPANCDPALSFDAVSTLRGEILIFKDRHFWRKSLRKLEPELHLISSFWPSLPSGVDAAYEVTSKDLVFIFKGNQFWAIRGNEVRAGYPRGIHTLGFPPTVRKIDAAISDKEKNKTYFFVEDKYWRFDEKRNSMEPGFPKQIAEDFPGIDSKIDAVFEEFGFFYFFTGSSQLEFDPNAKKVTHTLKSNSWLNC

| Structure (SMILES) | IC50 [µM] |
| --- | --- |
| O=C(NO)C1Cc2ccccc2CN1S(=O)(=O)Cc1ccccc1 (configuration not stated) [2-Phenylmethanesulfonyl-1,2,3,4-tetrahydro-isoquinoline-3-carboxylic acid hydroxyamide] | 10 |
| CSc1nccc(-c2ccc(S(=O)(=O)N3Cc4ccccc4CC3C(=O)O)s2)n1 (configuration not stated) | 10 |
| CCCCCCCCCCCCCCCCS(=O)(=O)N1Cc2ccccc2CC1C(=O)NO (configuration not stated) [2-(Hexadecane-1-sulfonyl)-1,2,3,4-tetrahydro-isoquinoline-3-carboxylic acid hydroxyamide] | 10 |
| COc1ccc(S(=O)(=O)N2Cc3ncn(C)c3C[C@@H]2C(=O)O)cc1 [(R)-5-(4-Methoxy-benzenesulfonyl)-1-methyl-4,5,6,7-tetrahydro-1H-imidazo[4,5-c]pyridine-6-carboxylic acid] | 10 |
| O=C(Nc1cccc(S(=O)(=O)N2Cc3ccccc3CC2C(=O)NO)c1)c1ccccc1O (configuration not stated) [2-[3-(2-Hydroxy-benzoylamino)-benzenesulfonyl]-1,2,3,4-tetrahydro-isoquinoline-3-carboxylic acid hydroxyamide] | 10 |
| O=C(NO)C1Cc2ccccc2CN1S(=O)(=O)c1cc(S(=O)(=O)c2ccccc2)cs1 (configuration not stated) [2-(4-Benzenesulfonyl-thiophene-2-sulfonyl)-1,2,3,4-tetrahydro-isoquinoline-3-carboxylic acid hydroxyamide] | 10 |
| O=C(NO)C1Cc2ccccc2CN1S(=O)(=O)c1cc(Br)c(Br)s1 (configuration not stated) [2-(4,5-Dibromo-thiophene-2-sulfonyl)-1,2,3,4-tetrahydro-isoquinoline-3-carboxylic acid hydroxyamide] | 10 |
